According to ChEMBL document CHEMBL5096145, “Evaluation of imidazo[2,1-b]thiazole-based anticancer agents in one decade (2011-2020): Current status and future prospects” (Bioorg Med Chem, 2021):
pIC50: −log10 of the molar value.

Assays:
HeLa [1] = test: Cytotoxicity against human HeLa cells expressing EGFR assessed as reduction in cell viability incubated for 24 hrs by MTT assay; format: functional, cell-based
L02 = test: Cytotoxicity against human HL7702 cells expressing EGFR assessed as reduction in cell viability incubated for 24 hrs by MTT assay; format: functional, cell-based; details: L02, 24 h
HepG2 [2] = test: Cytotoxicity against human HepG2 cells expressing EGFR assessed as reduction in cell viability incubated for 24 hrs by MTT assay; format: functional, cell-based; details: HepG2, 24 h
HUVEC = test: Cytotoxicity against HUVEC expressing EGFR assessed as reduction in cell viability incubated for 24 hrs by MTT assay; format: functional, cell-based; details: Homo sapiens
MIA PaCa-2 = test: Antiproliferative activity against human MIAPaCa-2 cells measured after 24 to 48 hrs by SRB staining based assay; format: functional, cell-based
HCT-116 = test: Anticancer activity against human HCT-116 cells measured after 48 hrs by MTT assay; format: functional, cell-based; details: HCT-116, 48 h
SK-MEL-28 = test: Antiproliferative activity against human SK-MEL-28 cells measured after 48 hrs by MTT assay; format: functional, cell-based; details: SK-MEL-28, 48 h
OVCAR-3 = test: Anticancer activity against human OVCAR-3 cells incubated for 48 hrs by SRB staining assay; format: functional
UACC-62 [3] = test: Antiproliferative activity against human UACC-62 cells measured after 48 hrs by MTT assay; format: functional, cell-based; details: UACC-62, 48 h
A-375 [4] = test: Antiproliferative activity against human A375 cells measured after 48 hrs by MTT assay; format: functional, cell-based; details: A-375, 48 h
A-375 [5] = test: Cytotoxicity against human A-375 cells by MTT assay; format: functional, cell-based
MDA-MB-435 = test: Antiproliferative activity against human MDA-MB-435 cells measured after 48 hrs by MTT assay; format: functional, cell-based; details: MDA-MB-435, 48 h
MDA-MB-231 [6] = test: Antiproliferative activity against human MDA-MB-231 cells measured after 48 hrs by MTT assay; format: functional, cell-based; details: MDA-MB-231, 48 h
A549 [7] = test: Induction of apoptosis in human A549 cells assessed as increase in caspase-3 level at 0.5 uM measured after 48 hrs by ELISA method relative to control; format: functional
A549 [8] = test: Anticancer activity against human A549 cells incubated for 24 hrs by MTT assay; format: functional, cell-based; details: A549, 24 h
A549 [9] = test: Induction of apoptosis in human A549 cells assessed as increase in caspase-3 level at 1 uM measured after 48 hrs by ELISA method relative to control (RVB = 9.1 %); format: functional
Tubulin = test: Inhibition of tubulin polymerization (unknown origin) by fluorescence based assay; format: protein-complex assay, Homo sapiens
HT-29 = test: Cytotoxicity against human HT-29 cells assessed as reduction in cell viability relative to control; format: functional
DU-145 [10] = test: Cytotoxicity against human DU-145 cells assessed as reduction in cell viability; format: functional, cell-based
DU-145 [11] = test: Potency index, ratio of sorafenib IC50 to test compound IC50 for cytotoxicity against human DU-145 cells; format: functional
A549 [12] = test: Antiproliferative activity human A549 cells; format: functional, cell-based
MDA-MB-231 [13] = test: Antiproliferative activity human MDA-MB-231 cells; format: functional, cell-based
MCF7 [14] = test: Antiproliferative activity human MCF7 cells; format: functional, cell-based
[15] = Cytotoxicity against human Colon carcinoma cells assessed as reduction in cell viability by MTT assay relative to control; format: functional
[16] = biological target: Serine/threonine-protein kinase B-raf (Homo sapiens) (UniProt P15056); test: Inhibition of wildtype BRAF (unknown origin) using MEK1 as substrate in presence of ATP relative to control; details: concentration not given here
Melanoma tumor cell line = test: Cytotoxicity against human melanoma tumor cell line assessed as reduction in cell viability by MTT assay relative to control; format: functional
[17] = system: Non-small cell lung cancer cell line; test: Cytotoxicity against human non-small cell lung cancer cell line assessed as reduction in cell viability by MTT assay relative to control; format: functional
[18] = system: Serine/threonine-protein kinase B-raf (Homo sapiens), P15056 [V600E]; test: Inhibition of human BRAF V600E mutant using MEK1 as substrate in presence of ATP relative to control; details: concentration not given here
Renal cancer cell line = test: Cytotoxicity against human renal cancer cell line assessed as reduction in cell viability by MTT assay relative to control; format: functional
[19] = biological target: Serine/threonine-protein kinase B-raf (Homo sapiens, UniProt P15056, V600E); test: Inhibition of human BRAF V600E mutant using MEK1 as substrate in presence of ATP
Ovarian cancer cell line = test: Cytotoxicity against human ovarian cancer cell line assessed as reduction in cell viability by MTT assay relative to control; format: functional
Prostatic carcinoma cell = test: Cytotoxicity against human prostatic carcinoma cell assessed as reduction in cell viability by MTT assay relative to control; format: functional
Leukemic tumor cell line = test: Cytotoxicity against human leukemic tumor cell line assessed as reduction in cell viability by MTT assay relative to control; format: functional
[20] = Cytotoxicity against human L132 cells by MTT assay; format: toxicity, cell-based
CNS carcinoma cell = test: Cytotoxicity against human CNS carcinoma cells assessed as reduction in cell viability by MTT assay relative to control; format: functional
Breast carcinoma cell = test: Cytotoxicity against human breast cancer cell line assessed as reduction in cell viability by MTT assay relative to control; format: functional
A549 [21] = test: Induction of cell cycle arrest in human A549 cells assessed as accumulation of cells at G2/M phase at 1 uM by flow cytometric analysis relative to control; format: functional
A549 [22] = test: Induction of cell cycle arrest in human A549 cells assessed as accumulation of cells at G2/M phase at 2 uM by flow cytometric analysis relative to control; format: functional
[23] = Inhibition of tubulin polymerisation in human A549; format: cell-based
A549 [24] = test: Induction of apoptosis in human A549 cells at 1 uM measured after 48 hrs by Annexin V-FITC analysis; format: functional
A549 [25] = test: Antiproliferative activity against human A549 cells incubated for 48 hrs by MTT assay; format: functional, cell-based; details: A549, 48 h
A549 [26] = test: Inhibition of tubulin polymerisation in human A549 cells relative to control; format: cell-based; details: dose or concentration not given here
A549 [27] = test: Induction of apoptosis in human A549 cells at 2 uM measured after 48 hrs by Annexin V-FITC analysis; format: functional
MCF7 [28] = test: Antiproliferative activity against human MCF7 cells measured after 48 hrs by MTT assay; format: functional, cell-based; details: MCF7, 48 h
HeLa [29] = test: Antiproliferative activity against human HeLa cells measured after 48 hrs by MTT assay; format: functional, cell-based
MDA-MB-231 [30] = test: Induction of cell cycle arrest in human MDA-MB-231 cells assessed as accumulation of cells at G0/G1 phase measured at 1 uM incubated for 24 hrs by flow cytometric analysis relative to control; format: functional
HepG2 [31] = test: Antiproliferative activity against human HepG2 cells measured after 48 hrs by MTT assay; format: functional, cell-based; details: HepG2, 48 h
UACC-62 [32] = test: Induction of apoptosis in human UACC-62 cells assessed as increase in caspase-3/7 release at 0.18 uM relative to control; format: functional
[33] = Inhibition of BRAF V600E mutant in MEF cells incubated for 90 mins; format: cell-based, Mus musculus
OVCAR-5 = test: Cytotoxicity against human OVCAR-5 cells assessed as inhibition of cell growth; format: functional, cell-based

Sequence of Serine/threonine-protein kinase B-raf (P15056 2-766 V600E limits assumed): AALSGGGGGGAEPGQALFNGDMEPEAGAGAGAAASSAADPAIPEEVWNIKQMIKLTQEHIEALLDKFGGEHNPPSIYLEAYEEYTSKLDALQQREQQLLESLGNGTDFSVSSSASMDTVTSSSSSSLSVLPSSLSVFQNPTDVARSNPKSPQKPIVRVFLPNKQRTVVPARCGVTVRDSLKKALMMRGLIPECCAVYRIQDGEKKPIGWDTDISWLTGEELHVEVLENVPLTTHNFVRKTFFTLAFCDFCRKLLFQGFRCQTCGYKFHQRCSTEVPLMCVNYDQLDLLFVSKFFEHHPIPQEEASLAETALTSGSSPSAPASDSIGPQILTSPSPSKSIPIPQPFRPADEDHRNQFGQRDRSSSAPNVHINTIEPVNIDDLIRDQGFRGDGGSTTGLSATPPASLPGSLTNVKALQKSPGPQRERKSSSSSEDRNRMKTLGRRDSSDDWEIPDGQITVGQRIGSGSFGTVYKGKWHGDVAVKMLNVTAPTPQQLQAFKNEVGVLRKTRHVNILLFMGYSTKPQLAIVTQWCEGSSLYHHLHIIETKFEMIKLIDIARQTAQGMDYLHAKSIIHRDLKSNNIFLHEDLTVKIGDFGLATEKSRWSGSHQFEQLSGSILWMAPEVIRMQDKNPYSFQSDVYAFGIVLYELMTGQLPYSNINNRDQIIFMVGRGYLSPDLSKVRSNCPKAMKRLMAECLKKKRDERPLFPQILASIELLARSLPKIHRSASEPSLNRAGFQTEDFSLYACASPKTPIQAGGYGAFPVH
Sequence of Serine/threonine-protein kinase B-raf (Homo sapiens), P15056 [V600E] (P15056 whole entry V600E): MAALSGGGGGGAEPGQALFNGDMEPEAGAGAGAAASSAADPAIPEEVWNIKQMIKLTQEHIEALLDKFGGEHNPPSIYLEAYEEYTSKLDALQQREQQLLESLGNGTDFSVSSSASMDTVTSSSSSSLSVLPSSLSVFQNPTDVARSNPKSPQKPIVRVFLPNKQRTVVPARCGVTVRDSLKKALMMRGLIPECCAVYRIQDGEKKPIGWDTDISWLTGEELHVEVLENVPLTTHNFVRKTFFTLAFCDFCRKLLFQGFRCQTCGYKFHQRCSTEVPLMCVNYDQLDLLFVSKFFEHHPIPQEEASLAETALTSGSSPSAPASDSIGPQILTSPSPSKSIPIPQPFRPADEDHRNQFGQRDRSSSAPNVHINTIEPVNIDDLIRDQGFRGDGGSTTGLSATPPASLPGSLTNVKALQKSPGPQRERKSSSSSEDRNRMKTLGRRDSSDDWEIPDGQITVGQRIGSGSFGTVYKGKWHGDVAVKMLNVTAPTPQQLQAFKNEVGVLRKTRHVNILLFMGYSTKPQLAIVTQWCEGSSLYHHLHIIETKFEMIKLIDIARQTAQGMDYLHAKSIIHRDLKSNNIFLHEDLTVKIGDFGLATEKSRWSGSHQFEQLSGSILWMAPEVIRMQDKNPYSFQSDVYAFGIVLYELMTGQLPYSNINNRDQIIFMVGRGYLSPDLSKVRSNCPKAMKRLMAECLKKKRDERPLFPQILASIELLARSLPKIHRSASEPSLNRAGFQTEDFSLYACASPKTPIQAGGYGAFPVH
Sequence of Serine/threonine-protein kinase B-raf (Homo sapiens) (P15056 whole entry): as the sequence (P15056 whole entry V600E) above, with E600V counted along it

O=C(Cc1csc2nc3ccccc3n12)Nc1ccccc1O
pIC50 (HeLa [1]): 6.38 | pIC50 (L02): < 4.00 | pIC50 (HepG2 [2]): < 4.00 | pIC50 (HUVEC): < 4.00

COc1ccc2c(c1OCc1csc3nc(-c4cc(C)c(Br)s4)cn13)C(=O)OC2C1c2c(cc3c(c2OC)OCO3)CCN1C (stereo unspecified)
pIC50 (MIA PaCa-2): 5.44

C/C(=N\N=C1\S/C(=N\Nc2ccccc2)C(=O)N1N)c1sc2nc(-c3ccc(C)cc3)cn2c1C
pIC50 (HCT-116): 5.96

CNC(=O)c1cc(Oc2ccc(NC(=O)Nc3ccc(Cl)c(C(F)(F)F)c3)cc2)ccn1 [SORAFENIB]
pIC50 (SK-MEL-28): 5.71 | GI50 (OVCAR-3): 2.95 µM | pIC50 (UACC-62 [3]): 5.71 | pIC50 (A-375 [4]): 5.71 | pIC50 (A-375 [5]): 4.99 | pIC50 (MDA-MB-435): 5.71

COc1ccc(C(=O)/C=C/c2cn3c(n2)sc2ccccc23)cc1
pIC50 (MDA-MB-231 [6]): 5.92

COc1ccc(-c2sc3nc(-c4ccc(F)cc4)c(/C=C/C(=O)c4ccccn4)n3c2-c2ccc(OC)cc2)cc1
Activity (A549 [7]): 64.14% | pIC50 (A549 [8]): 6.19 | Activity (A549 [9]): 69.07% | pIC50 (Tubulin): 5.63

COc1cccc2c1C(=O)c1c(O)c3c(c(O)c1C2=O)C[C@@](O)(C(=O)CO)C[C@@H]3O[C@H]1C[C@H](N)[C@H](O)[C@H](C)O1 [DOXORUBICIN]
pIC50 (MDA-MB-231 [6]): 5.74

COc1ccc2c(c1)sc1nc(/C=C/C(=O)c3ccc(OC)c(O)c3)cn12
pIC50 (MDA-MB-231 [6]): 5.89

COc1ccc(C(=O)NCCNc2nccc(-c3c(-c4ccc(F)cc4)nc4sccn34)n2)cc1
inhibition (INH) (HT-29): 85.38% | pIC50 (DU-145 [10]): 5.98 | Ratio IC50 (DU-145 [11]): 3

O=C(/C=C\Nc1cnc2ccccc2c1)c1c(-c2ccccc2)nc2sccn12
pIC50 (A549 [12]): 6.40 | pIC50 (MDA-MB-231 [13]): 5.34 | pIC50 (MCF7 [14]): 5.34

O=[N+]([O-])c1cccc(-c2nc3sccn3c2-c2ccnc(NCCCNS(=O)(=O)c3cccc(F)c3)n2)c1
inhibition (INH) [15]: >80% | inhibition [16]: 66.3% | inhibition (INH) (Melanoma tumor cell line): 100% | inhibition (INH) [17]: >80% | inhibition [18]: 99.6% | inhibition (INH) (Renal cancer cell line): >70% | pIC50 [19]: 7.68 | inhibition (INH) (Ovarian cancer cell line): >80% | inhibition (INH) (Prostatic carcinoma cell): >90% | pIC50 (A-375 [5]): 5.52 | inhibition (INH) (Leukemic tumor cell line): >90% | pIC50 [20]: 4.10 | inhibition (INH) (CNS carcinoma cell): 70% | inhibition (INH) (Breast carcinoma cell): >80%

COc1ccc(-c2nc3sccn3c2-c2nc3ccc(C(F)(F)F)cc3[nH]2)cc1
Activity (A549 [21]): 15.1% | Activity (A549 [22]): 56.3% | pIC50 [23]: 5.77 | Activity (A549 [24]): 14.94% | pIC50 (A549 [25]): 5.97 | inhibition (A549 [26]): 68.1% | Activity (A549 [27]): 43.62%

O=[N+]([O-])c1cccc(-c2nc3sccn3c2-c2ccnc(NCCCNS(=O)(=O)c3ccc(F)cc3)n2)c1
inhibition (INH) [15]: >80% | inhibition (INH) (Melanoma tumor cell line): 100% | inhibition (INH) [17]: >80% | inhibition (INH) (Renal cancer cell line): >70% | pIC50 [19]: 7.46 | inhibition (INH) (Ovarian cancer cell line): >80% | inhibition (INH) (Prostatic carcinoma cell): >90% | pIC50 (A-375 [5]): 5.10 | inhibition (INH) (Leukemic tumor cell line): >90% | pIC50 [20]: 4.12 | inhibition (INH) (CNS carcinoma cell): 70% | inhibition (INH) (Breast carcinoma cell): >80%

O=C1Nc2ccccc2/C1=C\c1c(-c2ccc(Br)cc2)nc2scc(-c3cc4ccccc4oc3=O)n12
pIC50 (MCF7 [28]): 4.97 | pIC50 (HeLa [29]): 5.17

C/C(=N\N=C1\S/C(=N\Nc2ccc(Br)cc2)C(=O)N1N)c1sc2nc(-c3ccc(C)cc3)cn2c1C
pIC50 (HCT-116): 5.96

O=C(Cc1csc2nc3ccccc3n12)Nc1cccc2ccccc12
pIC50 (HeLa [1]): 5.60 | pIC50 (L02): < 4.00 | pIC50 (HepG2 [2]): < 4.00 | pIC50 (HUVEC): < 4.00

COc1cc(C(=O)N/N=C/c2c(-c3ccc(F)cc3)nc3sccn23)cc(OC)c1OC
Activity (MDA-MB-231 [30]): 75.8%

COC(=O)Nc1nc2cc(C(=O)c3cccs3)ccc2[nH]1 [NOCODAZOLE]
pIC50 (MDA-MB-231 [6]): 5.72 | Activity (A549 [9]): 62.9% | pIC50 [23]: 5.70 | pIC50 (A549 [25]): 5.74 | inhibition (A549 [26]): 64.7% | pIC50 (A549 [12]): 5.94 | pIC50 (MDA-MB-231 [13]): 5.63 | pIC50 (MCF7 [14]): 5.63

COc1ccc(-c2nc3sccn3c2/C=N/NC(=O)c2cccc(O)c2)cc1
Activity (MDA-MB-231 [30]): 72.4%

O=C1NC(=S)NC(=O)C1=Cc1c(-c2ccc(Cl)cc2)nc2scc(-c3cc4ccccc4oc3=O)n12
pIC50 (HepG2 [31]): 4.86 | pIC50 (MCF7 [28]): 4.77 | pIC50 (HeLa [29]): 5.29

CCCS(=O)(=O)Nc1ccc(F)c(C(=O)c2c[nH]c3ncc(-c4ccc(Cl)cc4)cc23)c1F [VEMURAFENIB]
pIC50 (A-375 [5]): 5.23

O=C(NCCNc1nccc(-c2c(-c3cccc(O)c3)nc3sccn23)n1)c1ccccc1
pIC50 (SK-MEL-28): 6.74 | pIC50 (UACC-62 [3]): 6.74 | pIC50 (A-375 [4]): 6.74 | Activity (UACC-62 [32]): 53.33% | pIC50 (MDA-MB-435): 6.74 | pIC50 [33]: 6.72

COc1ccc(-c2nc3sccn3c2/C=C/C(=O)c2cc(OC)c(OC)c(OC)c2)cc1
pIC50 (OVCAR-5): 5.70
